Where “and” joins values, the source holds several entries; their conditions need not be identical. Identical values can stand only once. Like-named read-outs stand apart in the source and are kept apart here.
Columns and labels:
[1] = biological target: T1, human α1D‐adrenoceptor (full length) (Homo sapiens, UniProt P25100); assay: ^3H‐cAMP accumulation, CHO‐α1D cells; type: cell-based; conditions: cAMP accumulation without forskolin
T1 construct: human α1D‐adrenoceptor (full length) were used; expressed in transfected cells; host or cells: CHO-K1
T1 sequence (P25100 1-572): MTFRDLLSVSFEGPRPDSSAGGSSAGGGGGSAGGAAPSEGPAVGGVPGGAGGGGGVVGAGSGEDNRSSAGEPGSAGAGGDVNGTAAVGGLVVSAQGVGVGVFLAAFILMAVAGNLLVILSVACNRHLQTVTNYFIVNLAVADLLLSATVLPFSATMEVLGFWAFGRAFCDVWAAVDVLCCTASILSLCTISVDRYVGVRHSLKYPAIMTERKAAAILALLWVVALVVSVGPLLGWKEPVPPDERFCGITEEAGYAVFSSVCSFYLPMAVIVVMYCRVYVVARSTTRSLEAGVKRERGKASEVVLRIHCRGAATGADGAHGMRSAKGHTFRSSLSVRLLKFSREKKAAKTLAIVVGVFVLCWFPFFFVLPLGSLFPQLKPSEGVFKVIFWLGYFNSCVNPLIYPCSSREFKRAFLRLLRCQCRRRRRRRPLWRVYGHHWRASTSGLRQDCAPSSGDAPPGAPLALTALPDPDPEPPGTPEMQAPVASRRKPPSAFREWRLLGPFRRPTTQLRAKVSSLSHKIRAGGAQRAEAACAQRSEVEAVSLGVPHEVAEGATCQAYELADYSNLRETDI

[2] = biological target: T1, human α1D‐adrenoceptor (full length); assay: ERK1/2‐phosphorylation (Surefire Alphascreen), CHO‐α1D cells; type: cell-based; conditions: for EC50: log values given negative, read-out: ERK1/2‐phosphorylation Log EC50 (converted)
[3] = biological target: T2, human α1B‐adrenoceptor (Homo sapiens, UniProt P35368); assay: ^3H‐cAMP accumulation, CHO‐α1B cells; type: cell-based; conditions: CHO‐α1B cells; for cAMP accumulation % forskolin: % forskolin maximum response
T2 construct: expressed in transfected cells; host or cells: CHO-K1
T2 sequence (P35368 1-520): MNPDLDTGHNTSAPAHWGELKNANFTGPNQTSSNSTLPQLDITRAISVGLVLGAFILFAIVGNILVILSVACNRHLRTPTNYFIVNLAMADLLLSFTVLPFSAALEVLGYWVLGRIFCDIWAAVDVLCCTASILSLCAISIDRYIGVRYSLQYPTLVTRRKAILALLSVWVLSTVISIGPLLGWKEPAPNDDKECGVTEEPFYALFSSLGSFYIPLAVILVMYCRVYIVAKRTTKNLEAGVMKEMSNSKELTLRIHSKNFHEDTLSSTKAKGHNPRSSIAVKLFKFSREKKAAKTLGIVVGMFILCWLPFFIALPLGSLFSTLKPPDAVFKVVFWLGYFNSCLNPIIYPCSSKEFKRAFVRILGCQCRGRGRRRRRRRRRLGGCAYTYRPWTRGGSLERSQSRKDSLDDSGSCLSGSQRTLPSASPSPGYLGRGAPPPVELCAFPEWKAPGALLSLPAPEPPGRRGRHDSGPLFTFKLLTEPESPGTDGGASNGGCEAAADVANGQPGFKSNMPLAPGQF

[4] = biological target: T2, human α1B‐adrenoceptor; assay: Intracellular free calcium mobilization, CHO‐α1B cells; type: cell-based; conditions: CHO‐α1B cells; for Intracellular calcium release % ionomycin: maximal response as % of 10 µM ionomycin response
[5] = biological target: T2, human α1B‐adrenoceptor; assay: ERK1/2‐phosphorylation (Surefire Alphascreen), CHO‐α1B cells; type: cell-based
[6] = biological target: T1, human α1D‐adrenoceptor (full length); assay: Intracellular free calcium mobilization, CHO‐α1D cells; type: cell-based; conditions: CHO‐α1D cells; for EC50: read-out: Intracellular calcium release Log EC50 (converted); for Intracellular calcium release % ionomycin: maximal response as % of 10 µM ionomycin
[7] = biological target: T3, human α1A‐adrenoceptor (Homo sapiens, UniProt P35348); assay: ^3H‐cAMP accumulation, CHO‐α1A cells; type: cell-based; conditions: CHO‐α1A cells; for cAMP accumulation % forskolin: % of 10 µM forskolin response
T3 construct: expressed in transfected cells; host or cells: CHO-K1
T3 sequence (P35348 1-466): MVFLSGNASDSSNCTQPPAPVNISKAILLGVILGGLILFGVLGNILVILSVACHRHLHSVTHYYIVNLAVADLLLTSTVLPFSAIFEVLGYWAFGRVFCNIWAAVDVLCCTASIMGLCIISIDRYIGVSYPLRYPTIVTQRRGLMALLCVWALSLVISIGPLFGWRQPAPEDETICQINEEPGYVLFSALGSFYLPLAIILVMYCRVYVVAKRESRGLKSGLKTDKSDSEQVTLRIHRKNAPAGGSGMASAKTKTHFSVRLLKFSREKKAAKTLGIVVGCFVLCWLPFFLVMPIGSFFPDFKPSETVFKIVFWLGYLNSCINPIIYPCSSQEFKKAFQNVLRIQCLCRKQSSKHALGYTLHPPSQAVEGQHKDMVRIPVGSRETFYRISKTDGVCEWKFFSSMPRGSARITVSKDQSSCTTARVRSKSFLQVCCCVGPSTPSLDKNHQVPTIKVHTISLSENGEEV

[8] = biological target: T3, human α1A‐adrenoceptor; assay: Intracellular free calcium mobilization, CHO‐α1A cells; type: cell-based; conditions: CHO‐α1A cells; for Intracellular calcium release % ionomycin: maximal response as % of 10 µM ionomycin
[9] = biological target: T1, human α1D‐adrenoceptor (full length); assay: ^3H‐prazosin whole‐cell radioligand binding, CHO‐α1D cells; conditions: CHO‐α1D cells
[10] = biological target: T3, human α1A‐adrenoceptor; assay: ERK1/2‐phosphorylation (Surefire Alphascreen), CHO‐α1A cells; type: cell-based; conditions: CHO‐α1A cells, ^a bi‐phasic: initial stimulatory part; for ERK1/2‐phosphorylation % PDBu: % of 10 µM PDBu
[11] = biological target: T1, human α1D‐adrenoceptor (full length); assay: ^3H‐cAMP accumulation in the presence of 10 μM forskolin, CHO‐α1D cells; type: cell-based; conditions: CHO‐α1D cells
[12] = tested on: parental CHO cell line without any transfected receptors; assay: ERK1/2‐phosphorylation, parent CHO cells without transfected receptors; type: cell-based, Chinese hamster; conditions: for ERK1/2-phosphorylation % PDBu: CHO cells without transfected receptors, maximal response as % of PDBu (10μM) response, mean ± s.e.m.
[13] = tested on: parental CHO cell line without any transfected receptors; assay: Forskolin‐stimulated cAMP accumulation, parent CHO cells without transfected receptors; type: cell-based, Chinese hamster; conditions: CHO cells without transfected receptors; in presence of forskolin
[14] = biological target: T2, human α1B‐adrenoceptor; assay: ^3H‐prazosin whole‐cell radioligand binding, CHO‐α1B cells; conditions: CHO‐α1B cells
[15] = biological target: T2, human α1B‐adrenoceptor; assay: ^3H‐cAMP accumulation in the presence of 10 μM forskolin, CHO‐α1B cells; type: cell-based; conditions: CHO‐α1B cells; in presence of forskolin
[16] = biological target: T3, human α1A‐adrenoceptor; assay: ^3H‐cAMP accumulation in the presence of 10 μM forskolin, CHO‐α1A cells; type: cell-based
[17] = biological target: T3, human α1A‐adrenoceptor; assay: ^3H‐prazosin whole‐cell radioligand binding, CHO‐α1A cells
[18] = CHO‐α1D cells, maximal response as % of PDBu
[19] = CHO‐α1B cells, maximal response as % PDBu response, for bi‐phasic responses the initial stimulatory part
[20] = given as log KD (negative), mean ± SEM, 'early plateau' = specific binding not fully inhibited
[21] = in presence of forskolin, log values given negative

Row | cAMP Log EC50 [1] | EC50 ([2]; CHO‐α1D cells) [nM] | cAMP accumulation % forskolin [3] [%] | Intracellular calcium release % ionomycin [4] [%] | ERK1/2‐phosphorylation % PDBu [5, 19] [%] | EC50 ([6]; log values given negative) [nM] | cAMP accumulation % forskolin [7] | Intracellular calcium release % ionomycin [8] [%] | ERK1/2‐phosphorylation % PDBu [10] | EC50 [11, 21] [nM] | Intracellular calcium release % ionomycin [6] [%] | Structure (SMILES) | ERK1/2‐phosphorylation % PDBu [2, 18] [%] | ERK1/2-phosphorylation % PDBu [12] | cAMP accumulation (in presence of forskolin) Log EC50 [13] | further results
1 | No response | – | 5.3 ± 0.5 | 35.7 ± 3.7 | 54.5 ± 7.9 | – | 142.7 ± 8.7% | 61.0 ± 3.8 | 74.8 ± 4.5% | – | 12.0 ± 3.6 | CS(=O)(=O)Nc1c(O)ccc2c1CCCC2C1=NCCN1 (stereo not drawn) [A61603] | – | No response | No response | ERK1/2‐phosphorylation % PDBu at 100 µM ([2]; CHO‐α1D cells, response at 100 µM ligand (no EC50 given)): 11.7 ± 2.9%; cAMP accumulation Log EC50 [3]: −5.63 ± 0.18; Intracellular calcium release Log EC50 ([4]; given as log EC50 (negative numbers)): −6.52 ± 0.08; Intracellular calcium release Log EC50 ([6]; log values given negative): −5.29 ± 0.12; IC50 (log), ^3H‐prazosin binding ([14]; log IC50 bound given where no KD could be determined): IC50 > −4; Log IC50 α1B, ^3H‐prazosin whole cell binding ([14]; printed as IC50> log value): IC50 >−4; 3H‐prazosin binding Log KD ([9]; whole‐cell binding (from Table 1), log values given negative): −3.92; Log KD α1D, ^3H‐prazosin whole cell binding [9, 20]: −3.92 ± 0.11; cAMP (in presence of forskolin) Log EC50 [11, 21]: No response; cAMP accumulation (in presence of forskolin) Log EC50 [15]: −6.16 ± 0.09
2 | No response | 182 | 172.1 ± 11.3 | – | – | 18.2 | 164% and 164.0 ± 7.3% | 58.9 ± 3.7 | 71.3% and 71.3 ± 7.7% | 871 | 30.3 ± 2.3 | CNC[C@H](O)c1ccc(O)c(O)c1 [Adrenaline] | 32.2 ± 4.0 | No response | No response | Gi‐mediated inhibition of forskolin‐stimulated cAMP, CHO‐α1A cells [16]: did not inhibit cAMP accumulation; ERK1/2‐phosphorylation % PDBu [5]: 76.6 ± 9.0%; Intracellular calcium release % ionomycin ([8]; listed as adrenaline): 58.9%; Kd ([9]; Log KD α1D, ^3H‐prazosin whole cell binding, given as log KD (negative), mean ± SEM, 'early plateau' = specific binding not fully inhibited): 6.46 µM
3 | No response | 18600 | – | 54.9 ± 2.9 | 76.1 ± 6.8 | 6310 | – | 57.5 ± 2.1 | 81.2 ± 6.8% | 1820 | – | NCC(O)c1ccc(O)cc1 (stereo not drawn) [Octopamine] | – | – | No response | Emax at 100 µM ([12]; Cricetulus griseus, CHO, read-out: ERK1/2-phosphorylation % PDBu at 100μM): 2.9 ± 1.8%; ERK1/2‐phosphorylation % PDBu [2]: 14.5 ± 5.9%; EC50 ([4]; given as log EC50 (negative numbers), read-out: Intracellular calcium release Log EC50 (converted)): 1230 nM; Log efficacy ratio KD /EC50 ([4]; intrinsic efficacy ratio, KD from binding / EC50 calcium, log): >2.91; cAMP accumulation (in presence of forskolin) Fold increase at 100 µM ([16]; CHO‐α1A cells, response at 100 μM ligand, no EC50 obtained): 1.89 ± 0.06 fold; EC50 ([5]; CHO‐α1B cells, for bi‐phasic responses the initial stimulatory part, read-out: ERK1/2‐phosphorylation Log EC50 (converted)): 7.76 µM; Log efficacy ratio KD /EC50 ([6]; intrinsic efficacy ratio, binding KD / calcium EC50): >2.20; cAMP accumulation % forskolin at 100 µM ([7]; response at 100 μM ligand, no EC50 obtained): 18.0 ± 1.5%; Kd ([17]; Log KD α1A, ^3H‐prazosin whole cell binding, CHO‐α1A cells, given as log KD (negative), mean ± SEM): 363 µM; Affinity selectivity ratio α1A vs α1B ([17]; higher affinity for α1A than α1B): >2.8 fold; Affinity selectivity ratio α1A vs α1D ([17]; higher affinity for α1A than α1D): >2.8 fold; Log efficacy ratio KD /EC50 ([8]; binding KD and calcium EC50): 2.66; EC50 ([8]; given as log EC50 (negative), read-out: Intracellular calcium release Log EC50 (converted)): 794 nM; IC50 ([14]; printed as IC50> log value): > 1 mM; 3H‐prazosin binding log IC50 (bound, printed in Log KD column) ([9]; whole‐cell binding, given as IC50 > log value): IC50 > −3; IC50 ([9]; printed as IC50> log value): > 1 mM; EC50 ([10]; 2–4 min, ^b also active in parent CHO cells, read-out: ERK1/2‐phosphorylation Log EC50 (converted)): 4.17 µM; cAMP (in presence of forskolin) Fold increase ([11]; fold increase of the forskolin response): 1.17 ± 0.06

Row | Structure (SMILES) | cAMP Log EC50 [1] | EC50 ([2]; CHO‐α1D cells) [nM] | cAMP accumulation % forskolin [3] [%] | Intracellular calcium release % ionomycin [4] [%] | ERK1/2‐phosphorylation % PDBu [5, 19] [%] | EC50 ([6]; log values given negative) [nM] | cAMP accumulation % forskolin [7] | Intracellular calcium release % ionomycin [8] [%] | ERK1/2‐phosphorylation % PDBu [10] | EC50 [11, 21] [nM] | Intracellular calcium release % ionomycin [6] [%] | ERK1/2‐phosphorylation % PDBu [2, 18] [%] | ERK1/2-phosphorylation % PDBu [12] | cAMP accumulation (in presence of forskolin) Log EC50 [13] | further results
4 | CNC[C@H](O)c1cccc(O)c1 [R‐phenylephrine] | No response | 676 | 86.2 ± 5.3 | 67.0 ± 3.3 | 77.0 ± 4.8 | 63.1 | 132.5 ± 4.5% | 58.3 ± 2.9 | 84.5 ± 4.5% | 170 | – | 15.8 ± 2.9 | – | – | Kd [9, 20]: 22.4 µM
